What all share (assay): Calcium flux assay, CHO-K1 cells stably expressing Orexin receptor mutant
Holding throughout (assay type): cell-based, human

The test system of one experiment is hOX1 Q179A. The note with it: hOX1 Q179A (4.60) vs wild type, CHO-K1, Fluo-4AM, this work. As to the method: (§1) A combination of overlap and mismatch polymerase chain reaction (PCR) was used to introduce mutations into the corresponding Orexin-1 and Orexin-2 cDNAs as described by us previously.[62] Each mutation was made via the generation of two overlapping PCR fragments with PfuUltra II Fusion HS DNA Polymerase (Strategene). The two products were extracted, and a second round of PCR was performed via combination of both fragments with 5′ and 3′ gene specific primers (containing BamHI and NotI restriction sites, respectively). The resulting gel-purified products were then cloned into expression vector pFB-Neo for subsequent generation of stable cell lines. Constructs were confirmed via sequencing. Each verified cDNA was subsequently used to generate single, stably expressing clones in the CHO-K1 cell line.
(§2) Standard calcium flux assays were used to assess the functionality of each OX receptor mutant. Each CHO-K1 Orexin mutant was seeded into tissue culture-treated, 384-well, black clear-bottom plates (CellBind Corning 7086), at a density of 7500 cells/well in culture medium and maintained in an incubator (5% CO2 at 37 °C) overnight. The cell medium was removed, and the cells were incubated in 20 μL of assay buffer (4 μM Fluo-4AM in HBSS with 0.1% BSA) for 90 min at 37 °C. After incubation, the dye was removed and 45 μL of fresh buffer, without dye, was applied. Antagonists (5 μL) were applied, and after incubation for an additional 20 min at 37 °C, 20 μL of receptor specific agonists was applied and the calcium flux monitored using a Flex Station (Molecular Devices) over a period of 1 min. In all cases, the EC80 specific for the individual mutant as determined in previous experiments was reported.

The subject of another experiment is hOX1 Y311F. The conditions noted are these: hOX1 Y311F (6.48) relative to wild type, CHO-K1, Fluo-4AM, this work. As to the method: as §1, §2
The subject of a further experiment is hOX2 F227W. The conditions noted are these: hOX2 F227W (5.42) relative to wild type, CHO-K1, Fluo-4AM, this work. As to the method:
as §1, §2

The next experiment has as its system hOX2 Q134A. The conditions noted are these: hOX2 Q134A (3.32) relative to wild type, CHO-K1, Fluo-4AM, this work. As for the experimental part:
as §1, §2

Another experiment concerns hOX2 Q187A. The note with it: hOX2 Q187A (4.60) relative to wild type, CHO-K1, Fluo-4AM, this work. As for the experimental part: as §1, §2

Marks after values point to notes of the source that are not given here.

As to Orexin-B, the “fold improvement in potency relative to wild type” value with hOX1 Q179A came to 72.2 fold improvement. For the same substance, the “ratio EC50(mut)/EC50(WT)” value in the experiment on hOX1 Y311F is on record as 0.85 ^d fold; with hOX2 F227W, 75.0 ^d fold; in the experiment on hOX2 Q134A, 5.1 ^d fold; in the experiment with hOX2 Q187A it was 1.7 ^d fold.
